For 29 compounds, class results are on record in US20050197350A1, “Novel quinoline, tetrahydroquinazoline, and pyrimidine derivatives and methods of treatment related to the use thereof” (TAISHO PHARMACEUTICAL CO., LTD., priority 2003, published 2005).

The first experiment has as its system MCH receptors. Kind of experiment: MCH receptor activity class (method not given).
Settings: not given
Consider `Cc1cc(N(C)C)nc(N[C@H]2CC[C@@H](C(=O)NCc3cccc(Cl)c3)CC2)n1` [Example 2577, cis-N-(3-chlorobenzyl)-4-{[4-(dimethylamino)-6-methylpyrimidin-2-yl]amino}cyclohexanecarboxamide], for which the class is 1.

Still in this experiment, the particulars now being: MCH receptor activity class 1-3 (percent of control at 10^-7 M or IC50).
As to `Cc1cccc(C(C)C)c1NC(=O)NC[C@H]1CC[C@@H](Nc2nc3c(c(N(C)C)n2)CCCC3)CC1` [compound 2471], the class is recorded as 2 (Class 2: The value of percent of control at 10^−7 M was from 40% to 60% or the value of IC′50 was from 50 nM to 200 nM.). In the case of `Cc1noc(-c2ccccc2)c1NC(=O)NC[C@H]1CC[C@@H](Nc2nccc(N(C)C)n2)CC1` [compound 2437], the class is 1 (Class 1: The value of percent of control at 10^−7 M was less than 40% or the value of IC50 was less than 50 nM.).

Regarding `CSc1ccc(NC(=O)NC[C@H]2CC[C@@H](Nc3nc4c(c(N(C)C)n3)CCCC4)CC2)cc1` [compound 2457], the class is given as 3 (Class 3 The value of percent of control at 10^−7 M was more than 60% or the value of IC50 was more than 200 nM.).

The same experiment, now with this note: MCH receptor; class by percent of control at 10^-7 M or IC50.
For `CN(C)c1nc(N[C@H]2CC[C@@H](NC(=O)Nc3ccc(-c4ccccc4)cc3)CC2)nc2c1CCCC2` [compound 1898], the class is given as 3 (Class 3 The value of percent of control at 10^−7 M was more than 60% or the value of IC50 was more than 200 nM.). Still for that read-out and setting: next, `CN(C)c1nc(N[C@H]2CC[C@@H](NC(=S)Nc3ccccc3F)CC2)nc2c1CCCC2` [compound 1978]: 3 (Class 3 The value of percent of control at 10^−7 M was more than 60% or the value of IC50 was more than 200 nM.).

Still in this experiment, the particulars now being: activity class 1-3: percent of control at 10^-7 M or IC50.
Turning to `CN(C)c1cc(N[C@H]2CC[C@@H](CNC(=O)OCC3c4ccccc4-c4ccccc43)CC2)nc2ccccc12` [compound 1577], the class is recorded as 3 (Class 3 The value of percent of control at 10^−7 M was more than 60% or the value of IC50 was more than 200 nM.). The same measure, in the same setting: next, `CCCCCCCCOC(=O)N[C@H]1CC[C@@H](Nc2nccc(N(C)C)n2)CC1` [compound 1626]: 3 (Class 3 The value of percent of control at 10^−7 M was more than 60% or the value of IC50 was more than 200 nM.).

The same experiment, now with this note: activity class per percent of control at 10^-7 M or IC50.
`CN(C)c1nc(N[C@H]2CC[C@@H](NC(=O)c3ccc([N+](=O)[O-])cc3F)CC2)nc2c1CCCC2` [compound 1049]: the class was 3 (Class 3 The value of percent of control at 10^−7 M was more than 60% or the value of IC50 was more than 200 nM.). Same read-out and setting: next, `CN(C)c1nc(N[C@H]2CC[C@@H](NC(=O)c3cccc(C(=O)c4ccccc4)c3)CC2)nc2c1CCCC2` [compound 1009]: 3 (Class 3 The value of percent of control at 10^−7 M was more than 60% or the value of IC50 was more than 200 nM.).

The same experiment, now with this note: class 1-3 by percent of control at 10^-7 M or IC50.
Consider `CN(C)c1nc(NC2CCC(NC(=O)OCc3ccc([N+](=O)[O-])cc3)CC2)nc2c1CCCC2` (centres unmarked) [compound 492], for which the class is listed as 3 (Class 3 The value of percent of control at 10^−7 M was more than 60% or the value of IC50 was more than 200 nM.).

As to `Cc1cc(C(=O)N[C@H]2CC[C@@H](Nc3nc4c(c(N(C)C)n3)CCCC4)CC2)ccc1F` [compound 517], the class is given as 1 (Class 1: The value of percent of control at 10^−7 M was less than 40% or the value of IC50 was less than 50 nM.).

The experiment is the same for the next values; noted with them: class by percent of control at 10^-7 M or IC50.
For the compound `CN(C)c1ccnc(N[C@H]2CC[C@@H](CNC(=O)CSc3ccccc3)CC2)n1` [compound 408], the class is on record as 3 (Class 3 The value of percent of control at 10^−7 M was more than 60% or the value of IC50 was more than 200 nM.). For `CN(C)c1nc(N[C@H]2CC[C@@H](NC(=O)Nc3ccc4c(c3)OCCCO4)CC2)nc2c1CCCC2` [compound 1734], the class was 3 (Class 3 The value of percent of control at 10^−7 M was more than 60% or the value of IC50 was more than 200 nM.).

On to `CN(C)c1ccnc(N[C@H]2CC[C@@H](CNC(=O)c3ccc4nonc4c3)CC2)n1` [compound 368], for which the class was 3 (Class 3 The value of percent of control at 10^−7 M was more than 60% or the value of IC50 was more than 200 nM.).

Take `Cc1cc(CNC[C@H]2CC[C@@H](Nc3nc4c(c(N(C)C)n3)CCCC4)CC2)ccc1O` [compound 1436]: the class is 2 (Class 2: The value of percent of control at 10^−7 M was from 40% to 60% or the value of IC′50 was from 50 nM to 200 nM.). For the compound `CN(C)c1ccnc(N[C@H]2CC[C@@H](NC(=O)CCCc3cccs3)CC2)n1` [compound 886], the class is 3 (Class 3 The value of percent of control at 10^−7 M was more than 60% or the value of IC50 was more than 200 nM.). The same measure, in the same setting: under `Cc1cccc(C(=O)N[C@H]2CC[C@@H](Nc3cc(N(C)C)c4ccccc4n3)CC2)c1N` [compound 783] stands 3 (Class 3 The value of percent of control at 10^−7 M was more than 60% or the value of IC50 was more than 200 nM.). Same read-out and setting: under `CN(C)c1ccnc(N[C@H]2CC[C@@H](CNC(=O)c3ccc(Cl)cc3)CC2)n1` [compound 370] stands 2 (Class 2: The value of percent of control at 10^−7 M was from 40% to 60% or the value of IC′50 was from 50 nM to 200 nM.); under `CN(C)c1ccnc(N[C@H]2CC[C@@H](NC(=O)c3cc(F)c(F)c(F)c3F)CC2)n1` [compound 346], 3 (Class 3 The value of percent of control at 10^−7 M was more than 60% or the value of IC50 was more than 200 nM.).

For the compound `Cc1cc(C)c(CNC[C@H]2CC[C@@H](Nc3nc4c(c(N(C)C)n3)CCCC4)CC2)c(C)c1` [compound 1423], the class is listed as 3 (Class 3 The value of percent of control at 10^−7 M was more than 60% or the value of IC50 was more than 200 nM.). Still for that read-out and setting: under `COc1cc(CNC[C@H]2CC[C@@H](Nc3cc(N(C)C)c4ccccc4n3)CC2)cc2c1OCO2` [compound 1188] stands 2 (Class 2: The value of percent of control at 10^−7 M was from 40% to 60% or the value of IC′50 was from 50 nM to 200 nM.); under `CN(C)c1cc(N[C@H]2CC[C@@H](NC(=O)Nc3ccc(C#N)cc3)CC2)nc2ccccc12` [compound 2118], 3 (Class 3 The value of percent of control at 10^−7 M was more than 60% or the value of IC50 was more than 200 nM.); under `Cc1cc(Br)ccc1NC(=O)N[C@H]1CC[C@@H](Nc2cc(N(C)C)c3ccccc3n2)CC1` [compound 2159], 2 (Class 2: The value of percent of control at 10^−7 M was from 40% to 60% or the value of IC′50 was from 50 nM to 200 nM.). Still for that read-out and setting: next, `CCOC(=O)[C@H](Cc1ccccc1)NC(=O)N[C@H]1CC[C@@H](Nc2nccc(N(C)C)n2)CC1` (relative stereo) [compound 2250]: 3 (Class 3 The value of percent of control at 10^−7 M was more than 60% or the value of IC50 was more than 200 nM.).

Consider `CN(C)c1ccnc(N[C@H]2CC[C@@H](NC(=O)CCC3CCCCC3)CC2)n1` [compound 834], for which the class is reported as 3 (Class 3 The value of percent of control at 10^−7 M was more than 60% or the value of IC50 was more than 200 nM.). Still for that read-out and setting: under `COc1ccc(NC(=O)N[C@H]2CC[C@@H](Nc3nccc(N(C)C)n3)CC2)cc1Cl` [compound 2241] stands 3 (Class 3 The value of percent of control at 10^−7 M was more than 60% or the value of IC50 was more than 200 nM.); under `CC(C)Oc1ccc(CNC[C@H]2CC[C@@H](Nc3nccc(N(C)C)n3)CC2)cc1` [compound 1277], 2 (Class 2: The value of percent of control at 10^−7 M was from 40% to 60% or the value of IC′50 was from 50 nM to 200 nM.).

The experiment is the same for the next values; noted with them: class by percent of control at 10^−7 M or IC50.
With `Cc1cnc(N[C@H]2CC[C@@H](NCc3cccc(Br)c3)CC2)nc1N(C)C` [compound 2999], the class is 3 (Class 3 The value of percent of control at 10^−7 M was more than 60% or the value of IC50 was more than 200 nM.).
